{"source": "patent US20110046396A1", "about": "“POLYMORPHIC FORMS OF FLUVASTATIN SODIUM AND PROCESS FOR PREPARING THE SAME” (JUBILANT ORGANOSYS LIMITED, priority 2005, published 2011)", "origin": "cited, not measured here", "conditions": "compared with Form A or the amorphous form of Fluvastatin sodium; described in U.S. Pat. No. 6,124,340", "data": [{"molecule": "CC(C)n1c(/C=C/[C@H](O)C[C@H](O)CC(=O)[O-])c(-c2ccc(F)cc2)c2ccccc21.[Na+]", "note": "(racemic) [Form B, (±)-7-(3-(4-fluorophenyl)-1-(1-methylethyl)-1H-indol-2-yl)-3,5-dihydroxy-6-heptenoic acid monosodium salt]", "values": [{"measurement": "hygroscopicity", "result": "less hygroscopic than Form A or the amorphous form"}]}]}
